Measurements from patent publication US12414990B2, “Use of HLA-A*11:01-restricted hepatitis B virus (HBV) peptides for identifying HBV-specific CD8+ T cells” (AGENCY FOR SCIENCE, TECHNOLOGY AND RESEARCH, priority 2019, dated 2025).

Tests used:
[1] = test system: HLA-A*11:01-restricted antigen-specific CD8+ T cells in patient's PBMC; experiment: Highly multiplexed combinatorial pMHC tetramer staining with mass cytometry (epitope mapping, frequency of antigen-specific CD8+ T cells)
[2] = test system: antigen-specific CD8+ T cells; experiment: High-dimensional phenotypic profiling of antigen-specific CD8+ T cells (t-SNE, Phenograph, One-SENSE, Scorpius); format: cell-based, human; details: ex vivo
Protocol: Validated antigen-specific CD8+ T cells were exported individually from each donor for dimensionality reduction analysis. Detailed methodology for t-SNE and One-SENSE can be found elsewhere. Briefly, t-SNE and One-SENSE were performed using custom R scripts based on “flowCore” and “Rtsne” packages downloaded from The Comprehensive R Archive Network (CRAN). All data were transformed using the “logicleTransform” function and w=0.25, t=16409, m=4.5, a=0 as input parameters to roughly match scaling historically used in FlowJo. Cellular markers analyzed by t-SNE and One-SENSE were indicated (table S2). For One-SENSE, cellular markers in each T cell category (“Differentiation+TNFR”, “Exhaustion” and “Trafficking”) were subjectively assigned for categorical analysis. Aligned heatplots represent the distribution of marker positive cells in percentage on each “bin” on the axis (category) constructed by cells residing in small ranges of values. Positive population of markers was manually defined and markers of the same category were combined for each dimension using 250 bins.
Logistic regression was performed using the drc R package (v 3.0.1) using a 3-parameters logistic model.

[3] = patients with detected epitope-specific CD8+ T cells / patients tested, Immune Tolerant (IT) group, Freq > 0.002%
[4] = patients with detected epitope-specific CD8+ T cells / patients tested, acute resolved (R) group, Freq > 0.002%
[5] = Acute resolved (R) patients, patients with detected tetramer+ CD8+ T cells (frequency > 0.002%) / patients in the group, per epitope cluster
[6] = Immune Active (IA) patients, donors with tetramer+ CD8+ T cell frequency > 0.002% / donors tested
[7] = acute resolved (R) patients, donors with tetramer+ CD8+ T cell frequency > 0.002% / donors tested
[8] = patients with detected epitope-specific CD8+ T cells / patients tested, Immune Active (IA) group, Freq > 0.002%
[9] = patients with detected epitope-specific CD8+ T cells / patients tested, Inactive Carrier (InA) group, Freq > 0.002%
[10] = Immune Tolerant (IT) CHB patients, patients with detected tetramer+ CD8+ T cells (frequency > 0.002%) / patients in the group, per epitope cluster
[11] = Inactive Carrier (InA) patients, donors with tetramer+ CD8+ T cell frequency > 0.002% / donors tested
[12] = Immune Tolerant (IT) patients, donors with tetramer+ CD8+ T cell frequency > 0.002% / donors tested
[13] = Inactive Carrier (InA) CHB patients, patients with detected tetramer+ CD8+ T cells (frequency > 0.002%) / patients in the group, per epitope cluster
[14] = Immune Active (IA) CHB patients, patients with detected tetramer+ CD8+ T cells (frequency > 0.002%) / patients in the group, per epitope cluster

## SSCSSCPLSK
[1]; [3]
  Hits (Freq > 0.002%) IT: 6/8
[1]; [4]
  Hits (Freq > 0.002%) R: 8/12

## STVPCFNPK
[1]; [5]
  Hits (Freq > 0.002%) R: 1/12

## RIINNQHR
[1]; [6]
  Hits (Freq > 0.002%) IA: 1/12
[1]; [7]
  Hits (Freq > 0.002%) R: 1/12

## QVLPKVLHK
[1]; [6]
  Hits (Freq > 0.002%) IA: 1/12

## GTSGSPIVNR
[1]; [8]
  Hits (Freq > 0.002%) IA: 4/12
[1]; [3]
  Hits (Freq > 0.002%) IT: 5/8
[1]; [9]
  Hits (Freq > 0.002%) InA: 4/13
[1]; [4]
  Hits (Freq > 0.002%) R: 4/12

## GSCIQSQLRK
[1]; [10]
  Hits (Freq > 0.002%) IT: 1/8

## HBV-C-195v2: HBV core epitope, cluster 283, 1 unique peptide (RSQSPRRRRSK; Hepatitis B virus)
[2]
  phenotype of tetramer-stained epitope-specific CD8+ T cells: mostly naïve-like phenotype
[1]; ex vivo PBMC, groups IT, IA, InA, R, HD, CB
  detection / frequency of epitope-specific CD8+ T cells across patient groups: highest frequencies observed

## MLLYKTYGRK
[1]; [11]
  Hits (Freq > 0.002%) InA: 1/13

## KTYGRKLHLY
[1]; [12]
  Hits (Freq > 0.002%) IT: 1/8
[1]; Immune Tolerant (IT) patients, mean frequency of antigen-specific CD8+ T cells among hits
  Average of hits (%) IT: 0.002007%

## TVNAHQVLPK
[1]; [6]
  Hits (Freq > 0.002%) IA: 3/13
[1]; [12]
  Hits (Freq > 0.002%) IT: 1/12
[1]; [7]
  Hits (Freq > 0.002%) R: 2/12

## MSMTDLEAYFK
[1]; [8]
  Hits (Freq > 0.002%) IA: 1/12
[1]; [4]
  Hits (Freq > 0.002%) R: 1/12

## GVWIRTPPAYR
[1]; [9]
  Hits (Freq > 0.002%) InA: 1/13

## MATYGWNLVK
[1]; [8]
  Hits (Freq > 0.002%) IA: 1/12
[1]; [9]
  Hits (Freq > 0.002%) InA: 1/13

## RSQSPRRRRSK
[1]; [3]
  Hits (Freq > 0.002%) IT: 8/8
[1]; [9]
  Hits (Freq > 0.002%) InA: 6/13
[1]; [4]
  Hits (Freq > 0.002%) R: 6/12

## TTDLEAYFK
[1]; [8]
  Hits (Freq > 0.002%) IA: 1/12
[1]; [9]
  Hits (Freq > 0.002%) InA: 3/13
[1]; [4]
  Hits (Freq > 0.002%) R: 1/12

## RTQSPRRRR
[1]; [8]
  Hits (Freq > 0.002%) IA: 6/12
[1]; [3]
  Hits (Freq > 0.002%) IT: 1/8
[1]; [9]
  Hits (Freq > 0.002%) InA: 5/13
[1]; [4]
  Hits (Freq > 0.002%) R: 2/12

## QQGSMASGK
[1]; [13]
  Hits (Freq > 0.002%) InA: 1/13

## TTSTGPCK
[1]; [5]
  Hits (Freq > 0.002%) R: 1/12
[1]; [14]
  Hits (Freq > 0.002%) IA: 1/12

## PTYKAFLSK
[1]; [6]
  Hits (Freq > 0.002%) IA: 2/12
[1]; [12]
  Hits (Freq > 0.002%) IT: 1/8
[1]; [11]
  Hits (Freq > 0.002%) InA: 2/13
[1]; [7]
  Hits (Freq > 0.002%) R: 1/12

## VTKYLPLDK
[1]; [5]
  Hits (Freq > 0.002%) R: 2/12
[1]; [10]
  Hits (Freq > 0.002%) IT: 1/8
[1]; [13]
  Hits (Freq > 0.002%) InA: 3/13

## GSTHVSWPK
[1]; [6]
  Hits (Freq > 0.002%) IA: 1/12
[1]; [12]
  Hits (Freq > 0.002%) IT: 1/8

## AGFFLLTK
[1]; [13]
  Hits (Freq > 0.002%) InA: 1/13

## RGNTRVSWPK
[1]; [6]
  Hits (Freq > 0.002%) IA: 2/12
[1]; [12]
  Hits (Freq > 0.002%) IT: 1/8
[1]; [11]
  Hits (Freq > 0.002%) InA: 1/13
[1]; [7]
  Hits (Freq > 0.002%) R: 1/12

## AVVRRRCRSPR
[1]; [6]
  Hits (Freq > 0.002%) IA: 6/12
[1]; [12]
  Hits (Freq > 0.002%) IT: 3/8
[1]; [11]
  Hits (Freq > 0.002%) InA: 2/13
[1]; [7]
  Hits (Freq > 0.002%) R: 1/12

## SSAGPCALR
[1]; [11]
  Hits (Freq > 0.002%) InA: 2/13

## ASCMGLIYNR
[1]; [3]
  Hits (Freq > 0.002%) IT: 1/8
[1]; [9]
  Hits (Freq > 0.002%) InA: 1/13
[1]; [4]
  Hits (Freq > 0.002%) R: 1/12

## YVNVNMGLK
[1]; [8]
  Hits (Freq > 0.002%) IA: 1/12
[1]; [4]
  Hits (Freq > 0.002%) R: 1/12

## LLYKTFGRK
[1]; [6]
  Hits (Freq > 0.002%) IA: 5/12
[1]; [12]
  Hits (Freq > 0.002%) IT: 4/8
[1]; [11]
  Hits (Freq > 0.002%) InA: 5/13
[1]; [7]
  Hits (Freq > 0.002%) R: 1/12

## TVSAISSILSK
[1]; [5]
  Hits (Freq > 0.002%) R: 1/12
[1]; [14]
  Hits (Freq > 0.002%) IA: 2/12
[1]; [10]
  Hits (Freq > 0.002%) IT: 1/8

## NLNVSIPWTHK
[1]; [5]
  Hits (Freq > 0.002%) R: 1/12
[1]; [14]
  Hits (Freq > 0.002%) IA: 8/12
[1]; [10]
  Hits (Freq > 0.002%) IT: 4/8
[1]; [13]
  Hits (Freq > 0.002%) InA: 3/13

## KSGAIKVLK
[1]; [9]
  Hits (Freq > 0.002%) InA: 1/13

## STNRQSGRK
[1]; [5]
  Hits (Freq > 0.002%) R: 1/12
[1]; [14]
  Hits (Freq > 0.002%) IA: 7/12
[1]; [10]
  Hits (Freq > 0.002%) IT: 5/8
[1]; [13]
  Hits (Freq > 0.002%) InA: 4/13

## KIKMCFRK
[1]; [12]
  Hits (Freq > 0.002%) IT: 2/8
[1]; [7]
  Hits (Freq > 0.002%) R: 1/12

## SQIGAGVYK
[1]; [8]
  Hits (Freq > 0.002%) IA: 3/12
[1]; [3]
  Hits (Freq > 0.002%) IT: 1/8
[1]; [9]
  Hits (Freq > 0.002%) InA: 2/13
[1]; [4]
  Hits (Freq > 0.002%) R: 1/12

## MVSRLLLNR
[1]; [8]
  Hits (Freq > 0.002%) IA: 1/12

## SFSFGGFTFK
[1]; [8]
  Hits (Freq > 0.002%) IA: 2/12
[1]; [9]
  Hits (Freq > 0.002%) InA: 2/13
[1]; [4]
  Hits (Freq > 0.002%) R: 1/12

## LTFGRETVLE
[1]; [9]
  Hits (Freq > 0.002%) InA: 1/13
[1]; [4]
  Hits (Freq > 0.002%) R: 1/12

## LTINENRRLK
[1]; [14]
  Hits (Freq > 0.002%) IA: 1/12

## ATVLMGLGK
[1]; [8]
  Hits (Freq > 0.002%) IA: 1/12
[1]; [3]
  Hits (Freq > 0.002%) IT: 1/8
[1]; [9]
  Hits (Freq > 0.002%) InA: 1/13

## ATVQGQNLK
[1]; [8]
  Hits (Freq > 0.002%) IA: 2/12
[1]; [3]
  Hits (Freq > 0.002%) IT: 3/8
[1]; [9]
  Hits (Freq > 0.002%) InA: 9/13
[1]; [4]
  Hits (Freq > 0.002%) R: 4/12

## TVNETRRLK
[1]; [14]
  Hits (Freq > 0.002%) IA: 2/12
[1]; [10]
  Hits (Freq > 0.002%) IT: 1/8
[1]; [13]
  Hits (Freq > 0.002%) InA: 2/13

## AMGDAGGYK
[1]; [9]
  Hits (Freq > 0.002%) InA: 1/13
